Measurements from the supplement of paper PMC13380429.
± gives the standard deviation of the averaged measurements.

Key:
Conditions in all cases: 72 h
Caco-2 [1] = assay: cell viability relative to DMSO; higher = less toxic
Calu-3 [2] = assay: as above
HepG2 [3] = assay: as above
U2OS [4] = assay: as above
Vero E6 [5] = assay: as above
Caco-2 [6] = assay: relative viability EC50 (midpoint between 100% and the lowest measured viability); higher = less toxic
Calu-3 [7] = assay: as above
HepG2 [8] = assay: as above
U2OS [9] = assay: as above
Vero E6 [10] = assay: as above
Caco-2 [11] = assay: drug sensitivity score (DSS) for viability; higher = more toxic; extreme values may be limits of the assay
Calu-3 [12] = assay: as above
HepG2 [13] = assay: as above
U2OS [14] = assay: as above
Vero E6 [15] = assay: as above

Structure (SMILES) | cell viability (Caco-2 [1]; 1 nM) | cell viability (Caco-2 [1]; 10 nM) | cell viability (Caco-2 [1]; 100 nM) | cell viability (Caco-2 [1]; 1000 nM) | cell viability (Caco-2 [1]; 10000 nM) | cell viability (Calu-3 [2]; 1 nM) | cell viability (Calu-3 [2]; 10 nM) | cell viability (Calu-3 [2]; 100 nM) | cell viability (Calu-3 [2]; 1000 nM) | cell viability (Calu-3 [2]; 10000 nM) | cell viability (HepG2 [3]; 1 nM) | cell viability (HepG2 [3]; 10 nM) | cell viability (HepG2 [3]; 100 nM) | cell viability (HepG2 [3]; 1000 nM) | cell viability (HepG2 [3]; 10000 nM) | cell viability (U2OS [4]; 1 nM) | cell viability (U2OS [4]; 10 nM) | cell viability (U2OS [4]; 100 nM) | cell viability (U2OS [4]; 1000 nM) | cell viability (U2OS [4]; 10000 nM) | cell viability (Vero E6 [5]; 1 nM) | cell viability (Vero E6 [5]; 10 nM) | cell viability (Vero E6 [5]; 100 nM) | cell viability (Vero E6 [5]; 1000 nM) | cell viability (Vero E6 [5]; 10000 nM) | relative viability EC50 (Caco-2 [6]) | relative viability EC50 (Calu-3 [7]) | relative viability EC50 (HepG2 [8]) | relative viability EC50 (U2OS [9]) | relative viability EC50 (Vero E6 [10]) | drug sensitivity score (Caco-2 [11]) | drug sensitivity score (Calu-3 [12]) | drug sensitivity score (HepG2 [13]) | drug sensitivity score (U2OS [14]) | drug sensitivity score (Vero E6 [15])
O=C(Oc1cccc2cccnc12)c1ccccc1 [benzoxiquine] | 102% | 99.6% | 102% | 99.2% | 98.1% | 106% | 94.3% | 95.6% | 96% | 93.7% | 104% | 103% | 102% | 102% | 7% | 99.7% | 92.3% | 96.3% | 92.4% | 98.6% | 98.5% | 101% | 99.5% | 98.3% | 93.8% | > 10 µM | > 10 µM | 3.26 µM | > 10 µM | > 10 µM | 0 | 0 | 5.1 | 0 | 0
COc1cc2c(cc1OC)[C@@]13CCN4CC5=CCO[C@H]6CC(=O)N2[C@H]1[C@H]6[C@H]5C[C@H]43 [brucine] | 104% | 89.9% | 112% | 106% | 91.7% | 110% | 101% | 91.4% | 98% | 97.1% | 109% | 103% | 90.2% | 83.6% | 96.9% | 96.8% | 101% | 101% | 96.5% | 96.9% | 106% | 92.3% | 95.2% | 99% | 98.9% | > 10 µM | > 10 µM | > 10 µM | > 10 µM | > 10 µM | 0 | 0 | 2.6 | 0 | 0
CCCC(=O)Nc1ncnc2c1ncn2[C@@H]1O[C@@H]2COP(=O)(O)O[C@H]2[C@H]1OC(=O)CCC [bucladesine] | 110% | 101% | 107% | 93.3% | 91.9% | 100% | 92.9% | 92.9% | 94.3% | 108% | 101% | 101% | 93.9% | 99% | 96% | 105% | 94.8% | 103% | 97.2% | 100% | 98.5% | 104% | 97.8% | 104% | 95.2% | > 10 µM | > 10 µM | > 10 µM | > 10 µM | > 10 µM | 0 | 0 | 0 | 0 | 0
CCCC[N+]1(C)[C@@H]2C[C@@H](OC(=O)[C@H](CO)c3ccccc3)C[C@H]1[C@@H]1O[C@@H]12 (stereo not given in full) [butylscopolamine-bromide] | 92.8% | 98.3% | 104% | 94.7% | 98.2% | 110% | 83.9% | 99.5% | 90.9% | 106% | 102% | 106% | 92.9% | 102% | 115% | 99.1% | 94.7% | 101% | 96.3% | 99.7% | 97.4% | 95.9% | 96.5% | 95.6% | 108% | > 10 µM | > 10 µM | > 10 µM | > 10 µM | > 10 µM | 0 | 0 | 0 | 0 | 0
NC(=O)N1c2ccccc2C=Cc2ccccc21 [carbamazepine] | 104% | 96.9% | 98.5% | 97.2% | 102% | 91.2% | 91.9% | 90.3% | 98.4% | 98.9% | 107% | 110% | 88.9% | 98.6% | 101% | 101% | 97.2% | 101% | 96.4% | 104% | 106% | 98.4% | 98.8% | 95.1% | 95.7% | > 10 µM | > 10 µM | > 10 µM | > 10 µM | > 10 µM | 0 | 0 | 0 | 0 | 0
CCOC(=O)n1ccn(C)c1=S [carbimazole] | 98% | 98.7% | 100% | 104% | 100% | 92.4% | 95.4% | 101% | 104% | 107% | 94.7% | 99.8% | 93.3% | 90.6% | 103% | 99.5% | 91% | 94.4% | 101% | 103% | 90.9% | 89.5% | 91.2% | 93.7% | 108% | > 10 µM | > 10 µM | > 10 µM | > 10 µM | > 10 µM | 0 | 0 | 0 | 0 | 0
CC(C)(C(=O)O)c1ccc(C(=O)CCCN2CCC(OC(c3ccccc3)c3ccccc3)CC2)cc1 [carebastine] | 101% | 101% | 107% | 92.2% | 96.6% | 89.7% | 88.6% | 110% | 100% | 102% | 107% | 97.7% | 94.3% | 108% | 92.9% | 95.7% | 99.2% | 99.4% | 93.2% | 99.3% | 111% | 106% | 95.3% | 104% | 106% | > 10 µM | > 10 µM | > 10 µM | > 10 µM | > 10 µM | 0 | 0 | 0 | 0 | 0
CN(C)C(=O)N[C@H]1CC[C@H](CCN2CCN(c3cccc(Cl)c3Cl)CC2)CC1 [cariprazine] | 95.7% | 95.2% | 96.5% | 86.6% | 97.2% | 102% | 93% | 100% | 97.9% | 106% | 93% | 91.1% | 93.8% | 100% | 94.7% | 100% | 102% | 98% | 95.9% | 100% | 97.3% | 98.6% | 96.8% | 104% | 95.3% | > 10 µM | > 10 µM | > 10 µM | > 10 µM | > 10 µM | 0 | 0 | 0 | 0 | 0
CC1=C(C(=O)O)N2C(=O)[C@@H](NC(=O)[C@H](N)C3=CCC=CC3)[C@H]2SC1 [cephradine] | 96.75 ± 0.92% | 100 ± 9.7% | 94.8 ± 0.85% | 98 ± 3.8% | 103 ± 14% | 92.7 ± 0.85% | 98.1 ± 5.7% | 98.3 ± 2% | 106 ± 9.1% | 89.2 ± 6% | 99.9 ± 3.4% | 94.2 ± 3.5% | 98 ± 7.6% | 102 ± 10% | 108 ± 3.1% | 96.4 ± 0.99% | 99.7 ± 2.4% | 100 ± 3.5% | 103.8 ± 0.78% | 101.7 ± 0.78% | 95.2 ± 3% | 97 ± 3.8% | 94.5 ± 3% | 98.4 ± 4.1% | 99.2 ± 1.1% | > 10 µM | > 10 µM | > 10 µM | > 10 µM | > 10 µM | 0 | 0.15 ± 0.21 | 0 | 0 | 0
CCCCCCCCCCCCCCCC[N+](C)(C)C [cetrimonium] | 92.7% | 95.9% | 96.3% | 86.6% | 18.5% | 97.7% | 97.8% | 109% | 83.6% | 43.1% | 97.9% | 93.2% | 96.5% | 93.6% | 28% | 99% | 95% | 97.5% | 84.6% | 14.3% | 96.5% | 93.5% | 97.7% | 87.5% | 23.8% | 1.9 µM | 1.44 µM | 2.43 µM | 1.83 µM | 1.91 µM | 6.8 | 5.5 | 5 | 7.3 | 6.3
C[N+](C)(C)CC[N+]1(C)Cc2c(Cl)c(Cl)c(Cl)c(Cl)c2C1 [chlorisondamine-diiodide] | 92.1% | 93% | 99.9% | 103% | 88.8% | 93.2% | 102% | 102% | 89.8% | 100% | 94% | 110% | 103% | 99.9% | 101% | 97.2% | 96.2% | 96.1% | 97.5% | 92.5% | 100% | 95.5% | 95.7% | 97.4% | 94% | > 10 µM | > 10 µM | > 10 µM | > 10 µM | > 10 µM | 0 | 0 | 0 | 0 | 0
Cc1cc(O)ccc1Cl [chlorocresol] | 109% | 104% | 100% | 97.4% | 95.1% | 99.8% | 92.3% | 96.3% | 105% | 101% | 100% | 100% | 99% | 103% | 102% | 105% | 99.6% | 103% | 97.8% | 100% | 96.2% | 103% | 100% | 111% | 99.4% | > 10 µM | > 10 µM | > 10 µM | > 10 µM | > 10 µM | 0 | 0 | 0 | 0 | 0
O=C(O)/C=C\c1c[nH]cn1 [cis-Urocanic acid] | 93.8 ± 14% | 96.7 ± 3.2% | 92.3 ± 7.2% | 91.5 ± 8.9% | 98.1 ± 5.9% | 107 ± 4.3% | 108 ± 11% | 100 ± 4.8% | 98 ± 8.6% | 96.6 ± 3% | 97.1% | 95.9% | 88.1% | 102% | 95.2% | 99.2 ± 3% | 97.5 ± 2.8% | 97.7 ± 1.1% | 97.4 ± 4% | 100 ± 1.8% | 99.5 ± 3.1% | 99.8% | 100 ± 4.2% | 100.8 ± 0.64% | 99 ± 1.8% | > 10 µM | > 10 µM | > 10 µM | > 10 µM | > 10 µM | 1.25 ± 1.8 | 0 | 0 | 0 | 0
N=C(NCc1ccc(Cl)cc1)SCCCc1c[nH]cn1 [clobenpropit] | 97.5% | 96.2% | 101% | 93.5% | 104% | 108% | 100% | 103% | 101% | 82.4% | 94.2% | 106% | 105% | 102% | 84% | 110% | 104% | 99.5% | 98.3% | 99.6% | 101% | 100% | 97.4% | 93.3% | 97.5% | > 10 µM | > 10 µM | > 10 µM | > 10 µM | > 10 µM | 0 | 0.3 | 0.2 | 0 | 0
